Experimental data taken from patent publication US8748435B2, “Pyrazolo pyrimidine derivatives” (Novartis AG, priority 2011, dated 2014).
Where a name gives a salt, the structure may show the parent alone.

Legend:
human GPR4 [1] = target: T1, human GPR4 (Homo sapiens (Human), UniProt P46093); test: Human GPR4 binding assay ([3H]4 radioligand, membranes of 300.19 cells expressing human GPR4)
Method: a) Human GPR4 Binding Assay
(§1) Cells were grown in T175 flasks to a density of about 1×10^6 cells/mL in growth medium. The cells were harvested by centrifugation (3000 rpm for 30 minutes at 4° C.) and the pellet resuspended in ice cold buffer A (20 mM HEPES pH 7.8, 10 mM EDTA, 100 mM NaCl, 1 tab/40 mL protease inhibitor complete). […] The homogenate was centrifuged at 18000 rpm for 50 min at 4° C. and the membrane protein pellet resuspended in cold buffer A using the Polytron (2×20 seconds). The protein concentration is determined using the Bio Rad Protein Assay and human IgG as standard. The volume of the membrane protein suspension is adjusted to a final concentration of about 2 mg protein/mL. The suspension is then once again homogenized (Polytron) on ice at 25000 rpm for 20 seconds before being aliquoted and stored at −80° C.
(§2) Radio Ligand Binding Assay: Serial dilutions of compounds (stock in 10 mM DMSO) are prepared by first diluting the compounds in DMSO followed by a 1:50 dilution into assay buffer (10 mM HEPES, pH 8.0, 100 mM NaCl, 5 mM MgCl2, 1 mM CaCl2, 0.5% fatty acid-free BSA, 0.05% Tween-20). […] The desired amount of membranes (20 μg/well) is diluted with assay buffer. […] 100 μL of the membrane-suspension is added and the plate stirred for 60 minutes. […] The filter plate is washed 5 times with ice-cold wash buffer, dried and sealed at the bottom. Then 20 μL of Microscint 40 is added into each well and the top of the plate is sealed. Finally the plate is counted for 2 min/well in a TopCount NXT instrument (Packard Instruments). The data are analyzed using the GraphPad Prism™ software.

human GPR4 [2] = target: T1, human GPR4; test: Human GPR4 binding assay with additional human serum albumin (4% HSA); settings: binding assay with 4% HSA
Method: as §1, §2
In a similar manner, a binding assay with additional human serum albumin (4% HSA) has been established.

human GPR4 [3] = target: T1, human GPR4; test: Cell-based assay for human GPR4 activity (pH-induced cAMP formation, HTRF, HeLa cells); settings: HeLa cells stably expressing human GPR4, pH-induced cAMP
Method: b) Cell-Based Assay for Human GPR4 Activity
(§3) HeLa cells stably expressing human GPR4 were established by transfecting the cells with a construct containing the human GPR4 coding sequence. The cells were grown in Dulbecco's Modified Eagle Medium (DMEM)/HAM's tissue culture medium F12 (HAM's F12) supplemented with 10% fetal calf serum (FCS), 100 u/ml penicillin, 100 μg/ml streptomycin and 400 μg/ml G418 and 10 mM Hepes pH 8.0. pH-induced formation of cAMP was determined using the homogeneous time resolved fluorescence (HTRF) technology as provided by CisBio Inc. The cells were seeded in 384-well plates and cultured for 24 hours at 37° C., 5% CO2 before performing the assay. Medium was removed and 10 μl buffer A (Hepes buffered saline (HBS), 10 mM Hepes, pH 8, 2 mM 3-Isobutyl-1-methylxanthin (IBMX)) was added. For compound testing, buffer A with 2× concentrated compounds was used. Cells were incubated for 15 min at room temperature. 10 μl buffer B (HBS, 30 mM Hepes, specific pH) was added to reach the appropriate final pH for stimulation (see below) and incubation was continued for 15 min at room temperature. […] HBS: 130 mM NaCl, 0.9 mM NaH2 PO4, 5.4 mM KCl, 0.8 mM MgSO4, CaCl2 1.8 mM, 25 mM glucose, 10-30 mM Hepes. Adjustment of HBS buffers:
(§4) Compounds were diluted from fresh stock solutions at 10 mM in DMSO to 2 mM and then used for serial dilutions in DMSO.

mouse GPR4 = mouse GPR4 (Mus musculus (Mouse), UniProt Q8BUD0); test: Mouse GPR4 cAMP assay; assay type: cell-based
Method: as §3, §4
(§5) In a similar manner, assays for the mouse (m) and rat (r) GPR4 receptors have been established.

rat GPR4 = rat GPR4 (Rattus norvegicus (Rat), UniProt Q4KLH9); test: Rat GPR4 cAMP assay; assay type: cell-based; settings: read-out: r cAMP IC50
Method: as §3, §4, §5

Human H3 = Human H3 (Homo sapiens (Human), UniProt Q9Y5N1); test: Human H3 binding assay (SPA, [3H]-R-alpha-Methylhistamine); settings: 3 nM [3H]-R-alpha-Methylhistamine
Method: c) Human H3 Binding Assay
The Scintillation Proximity Binding Assay (SPA) assay was performed in a final volume of 50 μL per well in a 384-well polystyrene plate.
The final concentration of the radioligand was 3 nM. • 20 μL of a beads (PVT-WGA type A) and membranes mixed suspension in assay buffer, in order to get a final concentration of 10 μg/well of membranes and 200 μg/well of beads. As an example, 1471 μL membranes (Conc.: 5.1 mg/mL) and 1500 μL of bead suspension (Conc.: 100 mg/mL) are diluted to a final volume of 15 mL of assay buffer.
The plates were sealed and shaken at room temperature, then allowed to stand at room temperature for at least 1 hour. The plates were counted using a Perkin Elmer TopCount reader, each well being counted for 1 minute.

[4] = radioligand [3H]4 (example 39), membranes of 300.19 cells expressing human GPR4

Human H3, sequence (Q9Y5N1 whole entry): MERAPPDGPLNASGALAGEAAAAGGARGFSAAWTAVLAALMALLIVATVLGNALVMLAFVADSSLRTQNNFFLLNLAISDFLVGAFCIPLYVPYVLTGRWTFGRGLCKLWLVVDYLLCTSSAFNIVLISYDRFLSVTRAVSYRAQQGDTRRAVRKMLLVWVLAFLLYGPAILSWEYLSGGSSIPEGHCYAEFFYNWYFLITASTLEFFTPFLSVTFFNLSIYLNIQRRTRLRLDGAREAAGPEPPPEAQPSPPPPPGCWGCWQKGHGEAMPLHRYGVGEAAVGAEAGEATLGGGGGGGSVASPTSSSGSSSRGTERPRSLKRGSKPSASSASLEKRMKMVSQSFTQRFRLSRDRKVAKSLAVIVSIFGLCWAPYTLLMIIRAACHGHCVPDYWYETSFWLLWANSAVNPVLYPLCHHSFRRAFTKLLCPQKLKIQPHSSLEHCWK
mouse GPR4, sequence (Q8BUD0 whole entry): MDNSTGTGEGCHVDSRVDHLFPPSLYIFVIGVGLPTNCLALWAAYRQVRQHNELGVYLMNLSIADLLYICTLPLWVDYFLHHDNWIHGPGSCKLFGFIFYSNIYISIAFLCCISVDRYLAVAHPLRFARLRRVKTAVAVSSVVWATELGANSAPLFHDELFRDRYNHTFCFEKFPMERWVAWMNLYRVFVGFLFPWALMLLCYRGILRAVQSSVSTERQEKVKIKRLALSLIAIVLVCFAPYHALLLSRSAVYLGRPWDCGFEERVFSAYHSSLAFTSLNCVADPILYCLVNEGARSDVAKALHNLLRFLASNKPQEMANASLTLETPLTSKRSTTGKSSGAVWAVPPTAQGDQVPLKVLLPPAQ
rat GPR4, sequence (Q4KLH9 whole entry): as the sequence (Q8BUD0 whole entry) above, with G8W, H51R, S339T counted along it
T1 sequence (P46093 whole entry): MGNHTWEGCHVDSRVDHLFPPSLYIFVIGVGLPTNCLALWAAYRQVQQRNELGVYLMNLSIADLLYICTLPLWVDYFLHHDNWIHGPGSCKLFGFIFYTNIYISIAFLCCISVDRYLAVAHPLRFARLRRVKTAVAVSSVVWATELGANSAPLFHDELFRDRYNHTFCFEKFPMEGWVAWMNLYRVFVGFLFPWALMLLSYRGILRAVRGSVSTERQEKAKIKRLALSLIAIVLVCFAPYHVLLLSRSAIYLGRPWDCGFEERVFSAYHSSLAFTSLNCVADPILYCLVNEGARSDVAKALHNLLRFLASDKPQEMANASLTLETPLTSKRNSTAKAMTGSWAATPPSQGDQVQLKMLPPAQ

Row | Compound | IC50 (human GPR4 [1]) | IC50 (human GPR4 [2]) | IC50 (human GPR4 [3]) | IC50 (mouse GPR4) | IC50 (rat GPR4) | IC50 (Human H3) | IC50 (human GPR4 [1]; [4]) | IC50 (human GPR4 [2]; read-out: GPR4 4% HSA IC50)
1 | CCc1nn2c(C)cc(C)nc2c1Cc1ccc(/C=C/CN2CCN[C@@H](CN(C)C)C2)cc1 [Example 13, ((S)-4-{(E)-3-[4-(2-Ethyl-5,7-dimethyl-pyrazolo[1,5-a]pyrimidin-3-ylmethyl)-phenyl]-allyl}-piperazin-2-ylmethyl)-dimethyl-amine trihydrochloride] | 0.007 µM | 0.007 µM | 0.068 µM | 0.388 µM | 1.69 µM | 4.9 µM | – | –
2 | CCc1nn2c(C)cc(C)nc2c1Cc1ccc(/C=C/C(=O)N2CCNCC2)cc1 [Example 18, (E)-3-[4-(2-Ethyl-5,7-dimethyl-pyrazolo[1,5-a]pyrimidin-3-ylmethyl)-phenyl]-1-piperazin-1-yl-propenone hydrochloride] | – | – | 0.043 µM | 1.28 µM | 1.79 µM | > 30 µM | 0.081 µM | 0.067 µM
3 | CCc1nn2c(C)cc(C)nc2c1Cc1ccc(-n2cc(CN3CC(N)C3)cn2)cc1 [Example 29, 1-{1-[4-(2-Ethyl-5,7-dimethyl-pyrazolo[1,5-a]pyrimidin-3-ylmethyl)-phenyl]-1H-pyrazol-4-ylmethyl}-azetidin-3-ylamine] | – | 0.03 µM | 0.036 µM | 0.211 µM | 0.43 µM | > 30 µM | 0.021 µM | –
4 | CCc1nn2c(C)cc(C)nc2c1Cc1ccc(OCCN2CCNCC2)cc1 [Example 26, 2-Ethyl-5,7-dimethyl-3-[4-(2-piperazin-1-yl-ethoxy)-benzyl]-pyrazolo[1,5-a]pyrimidine] | 0.044 µM | 0.069 µM | 0.096 µM | 0.633 µM | 2.64 µM | > 30 µM | – | –
5 | CCc1nn2c(C)cc(C)nc2c1Cc1ccc(/C=C/CN2CCN(C(=O)[C@H]3NCC[C@H]3O)CC2)cc1 [Example 16, (4-{(E)-3-[4-(2-Ethyl-5,7-dimethyl-pyrazolo[1,5-a]pyrimidin-3-ylmethyl)-phenyl]-allyl}-piperazin-1-yl)-((2S,3R)-3-hydroxy-pyrrolidin-2-yl)-methanone dihydrochloride] | – | 0.12 µM | 0.041 µM | 0.2 µM | 0.837 µM | > 30 µM | 0.035 µM | –
6 | CCc1nn2c(C)cc(C)nc2c1Cc1ccc(/C=C/C[C@]2(O)CCN[C@@H](C)C2)cc1 [Example 5, (2S,4S)-4-{(E)-3-[4-(2-Ethyl-5,7-dimethyl-pyrazolo[1,5-a]pyrimidin-3-ylmethyl)-phenyl]-allyl}-2-methyl-piperidin-4-ol] | – | 0.011 µM | 0.017 µM | 0.07 µM | 0.162 µM | > 30 µM | 0.015 µM | –
7 | CCc1nn2c(C)cc(C)nc2c1Cc1ccc(-n2cc(CC3(O)CCNCC3)nn2)cc1 [Example 34, 4-{1-[4-(2-Ethyl-5,7-dimethyl-pyrazolo[1,5-a]pyrimidin-3-ylmethyl)-phenyl]-1H-[1,2,3]triazol-4-ylmethyl}-piperidin-4-ol] | 0.077 µM | 0.078 µM | 0.058 µM | 0.534 µM | 1.23 µM | > 30 µM | – | –
8 | CCc1nn2c(C)cc(C)nc2c1Cc1ccc(-c2nnc([C@H]3CC[C@H](N)CC3)o2)cc1 [Example 36, 4-{5-[4-(2-Ethyl-5,7-dimethyl-pyrazolo[1,5-a]pyrimidin-3-ylmethyl)-phenyl]-[1,3,4]oxadiazol-2-yl}-cyclohexylamine] | – | 0.017 µM | 0.051 µM | 0.284 µM | 2.29 µM | > 30 µM | 0.005 µM | –
9 | CCc1nn2c(C)cc(C)nc2c1Cc1ccc(/C=C/CN2CCN[C@H](COC)C2)cc1 [Example 10, 2-Ethyl-3-{4-[(E)-3-((S)-3-methoxymethyl-piperazin-1-yl)-propenyl]-benzyl}-5,7-dimethyl-pyrazolo[1,5-a]pyrimidine] | – | 0.093 µM | 0.054 µM | 0.401 µM | 1.34 µM | > 30 µM | 0.033 µM | –
10 | CCc1nn2c(C)cc(C)nc2c1Cc1ccc(/C=C/C2(O)CCNCC2)cc1 [Example 1, 4-{(E)-2-[4-(2-Ethyl-5,7-dimethyl-pyrazolo[1,5-a]pyrimidin-3-ylmethyl)-phenyl]-vinyl}-piperidin-4-ol] | 0.045 µM | 0.025 µM | 0.037 µM | 0.265 µM | 0.931 µM | > 30 µM | – | –
11 | CCc1nn2c(C)cc(C)nc2c1Cc1ccc(/C=C/CC2(O)CNC2)cc1 [Example 2, 3-{(E)-3-[4-(2-Ethyl-5,7-dimethyl-pyrazolo[1,5-a]pyrimidin-3-ylmethyl)-phenyl]-allyl}-azetidin-3-ol] | 0.034 µM | 0.052 µM | 0.055 µM | 0.632 µM | 0.989 µM | > 10 µM | – | –
12 | CCc1nn2c(C)cc(C)nc2c1Cc1ccc(OCCC2(O)CCNCC2)cc1 [Example 25, 4-{2-[4-(2-Ethyl-5,7-dimethyl-pyrazolo[1,5-a]pyrimidin-3-ylmethyl)-phenoxy]-ethyl}-piperidin-4-ol] | – | 0.063 µM | 0.052 µM | 0.635 µM | 2.09 µM | > 30 µM | 0.11 µM | –
13 | CCc1nn2c(C)cc(C)nc2c1Cc1ccc(/C=C/CC2(O)CCN(C(=O)CNC)CC2)cc1 [Example 7, 1-(4-{(E)-3-[4-(2-Ethyl-5,7-dimethyl-pyrazolo[1,5-a]pyrimidin-3-ylmethyl)-phenyl]-allyl}-4-hydroxy-piperidin-1-yl)-2-methylamino-ethanone hydrochloride] | 0.034 µM | 0.056 µM | 0.033 µM | 0.253 µM | 1.72 µM | > 30 µM | – | –
14 | CCc1nn2c(C)cc(C)nc2c1Cc1ccc(/C=C/CN2CCNCC2)cc1 [Example 14, 2-Ethyl-5,7-dimethyl-3-[4-((E)-3-piperazin-1-yl-propenyl)-benzyl]-pyrazolo[1,5-a]pyrimidine] | – | 0.012 µM | 0.055 µM | 0.127 µM | 0.691 µM | > 30 µM | 0.01 µM | –
15 | CCc1nn2c(C)cc(C)nc2c1Cc1ccc(/C=C/CN2CCN(C(=O)[C@H](CO)NC)CC2)cc1 [Example 15, (S)-1-(4-{(E)-3-[4-(2-Ethyl-5,7-dimethyl-pyrazolo[1,5-a]pyrimidin-3-ylmethyl)-phenyl]-allyl}-piperazin-1-yl)-3-hydroxy-2-methylamino-propan-1-one] | – | 0.044 µM | 0.056 µM | 0.216 µM | 0.634 µM | 26 µM | 0.051 µM | –
